Entries after “also recorded” stand apart in the source; their conditions may differ.
Test system: complete mole iPS cells
Test: Trophoblast differentiation of complete mole iPS cells under AP conditions with BMP receptor inhibitor LDN193189
Type: cell-based, human
Description: FIG. 9—Preventing trophoblast differentiation in complete mole iPS cells by inhibition of the BMP signaling pathway. Cells are exposed to vehicle (DMSO) or BMP receptor inhibitor LDN193189 (100 nM) under AP conditions. (A) Changes in colony morphology by LDN193189 treatment. Pictures were obtained with 4× magnification. (B) Heat map showing the expression of trophoblast markers during differentiation of healthy and complete mole iPS cells (n=2 biological replicas) (C-D) Violin plot representation of pluripotency and trophoblast markers (n=2, ****p<0.001, Wilcoxon rank total test) (E) RT-qPCR for trophoblast and stem cell markers. Sidak multiple comparison tests were applied following 2-way ANOVA, *p<0.05, **p<0.01, ***p<0.005, ****p<0.001. Bars; showing±Standard Deviation. (F) Representative immunoblots for CDX2, HLA-G, KRT7 and OCT3/4.
In accordance the purpose of the present invention, the inventors applied it to the nutrition fluid of cells under LDN193189 AP conditions to test whether BMP receptor inhibitors can attenuate trophoblast differentiation or not. […] (FIG. 10A)
Trophoblast cells were formed from the obtained IPSCs under BAP or AP conditions. IPS cells were routinely kept on MEFs with hES medium (10 ng/mL FGF2). For trophoblast differentiation, 2.4×10^4 cells per square centimeter were seeded on matrigel-coated plates with conditioned hES medium through a monolayer of mitomycin-C treated MEF nutrient cells (MEF-CM) containing FGF2 (10 ng/mL). Next day, the medium was changed as MEF-CM containing 4 ng/mL FGF2. Next day, the medium was changed as BMP4 (10 ng/mL) containing unconditioned (BAP) hESC basal medium with MEF nutrient cells (RD Systems), ALK4/5/7 inhibitor, A83-01 (1 μM) (Tocris) and FGF2-signal inhibitor PD173074 […] (Sigma) (22, 27, 28). Control cultures were grown in the presence of FGF2 and in the absence of BAP. The medium was refreshed daily.
Total RNA was extracted using the Direct-zol RNA Isolation Kit (Zymogen) and cDNA was synthesized using the Sensifast cDNA synthesis kit (Bioline) as described by the manufacturer. Sequences of primers used in gene expression were synthesized by Macrogen as listed in table 3. qRT-PCR was performed on Exicycler™ 96 (Bioneer) using SensiFAST™ SYBRQR No-ROX Kit (Bioline). qRT-PCR results were analysed by the Ct method for relative amounts by taking GAPDH or HPRT as internal controls.
Cells were harvested in RIPA lysis buffer (150 mM NaCl, 1% NP40, 0.5% sodium deoxycholate, 0.1% SDS, 50 mM Tris pH 7.4) supplied with protease and phosphatase inhibitors (Roche, Switzerland). TCA-acetone precipitation was performed for the supernatants. Protein samples were applied to the SDS gel. Semi-dry transfer was performed by using Blotting papers (Sigma-Aldrich, USA) and PVDF membrane (Millipore, Ireland). After blocking with 5% non-fat dry milk, membranes were incubated overnight with primary antibodies (1:1000) at +4° C. Next day, the membrane was incubated with secondary antibodies connected with 1:2000 HRP according to the host origin of the primary antibody. Between all steps, membranes were washed 3 times with TBS-T. Immunoblot membranes were visualized with the Syngene documentation system by using ECL HRP Substrate (Advansta, USA).
Total RNA was extracted by using the Direct-zol RNA Isolation Kit (Zymogen) according to the protocol of the manufacturer (n=2 in all cases). Library preparation procedure by using Truseq strand mRNA LT Sample Preparation Kit (Illumina) and RNA sequencing procedure by using Hiseq2500 (Illumina) were performed by Macrogen Inc. (Korea). RNA sequence data were processed and interpreted with the Genialis visual computing platform (www.genialis.com). Briefly, RNA sequence readings were subjected to correction (BBDuk), mapping (STAR) and expression quantitation (featureCounts) procedures, respectively. The readings were mapped to Homo sapiens GRCh38 (Ensembl, version 92, ERCC). […]

[1] = complete mole cells, BMP pathway inhibition with LDN193189 100 nM, AP conditions, FIG. 9F
[2] = complete mole cells, LDN193189 100 nM, AP conditions, FIG. 9C-9D

Structure (SMILES): c1ccc2c(-c3cnn4cc(-c5ccc(N6CCNCC6)cc5)cnc34)ccnc2c1 [LDN193189]
- trophoblast differentiation of complete mole cells (LDN193189 100 nM, AP conditions, heat map of trophoblast markers FIG. 9B): inhibits trophoblast differentiation of complete mole cells; also recorded: suppression of excessive trophoblast differentiation
- hierarchical clustering at whole transcriptome level (cells treated with LDN193189, FIG. 10D): clustered with non-differentiated iPS cells
- trophoblast gene expression by qRT-PCR (complete mole cells, BMP pathway inhibition with LDN193189 100 nM, AP conditions, FIG. 9E): decrease in trophoblast gene expression
- CDX2, KRT7, HLA-G expression (immunoblot) [1]: stopped CDX2, KRT7, HLA-G increase in expression
- OCT3/4 expression (immunoblot) [1]: prevented decrease in expression (downregulation) of OCT3/4
- colony morphology (light microscopy) (complete mole cells, LDN193189 100 nM, AP conditions (A83-01+PD173074, no BMP4), vs DMSO vehicle, FIG. 9A): morphological phenotype similar to healthy cells
- expression of pluripotency markers (RNA sequencing, violin plot) [2]: remained highly expressed
- global expression of trophoblast markers (RNA sequencing, violin plot) [2]: decreased
